Assay results: PMC12042115 (mLife, 2025)
In brackets after ≈: the same amount, converted by molar mass.

Assays:
[1] = Hydrolysis in protein‐free buffer (data not published); type: physicochemical; conditions: over time
M. tuberculosis H37Rv = test system: M. tuberculosis H37Rv; design: method as in PubChem; conditions: ref PubChem; cited from earlier work
[2] = test system: ClpP1(7‐200) ClpP2(16‐214) enzyme complex; test: Intact protein MS; type: binding, Mycobacterium tuberculosis; conditions: 100 μM compound, 10 μM enzyme, 1 h
Protocol: 10 μM of the ClpP1(7‐200) ClpP2(16‐214) enzyme complex was incubated with DMSO (as negative control) and 100 μM GDI‐5755 separately in 30 mM PIPES buffer only at room temperature in a final reaction volume of 40 μl. After 1 h of incubation, the samples were sent to a service lab at Peking University for a Matrix‐Assisted Laser Desorption/Ionization (MALDI) Time‐of‐Flight (TOF) MS analysis.

Mtb ClpP1P2 = Mtb ClpP1P2 (Mycobacterium tuberculosis, UniProt P9WPC3+P9WPC5); test: k obs/[I] determination from progress curves; type: biochemical; conditions: no pre‐incubation, 50 nM ClpP1P2, 200 µM substrate
Sequence of Mtb ClpP1P2 (P9WPC3 16-214, one chain of several): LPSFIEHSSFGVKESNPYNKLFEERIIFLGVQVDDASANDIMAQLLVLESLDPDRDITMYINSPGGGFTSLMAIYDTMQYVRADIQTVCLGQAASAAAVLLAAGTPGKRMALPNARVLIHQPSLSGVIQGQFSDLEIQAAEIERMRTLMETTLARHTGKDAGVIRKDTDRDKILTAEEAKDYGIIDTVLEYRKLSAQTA
Protocol: 10 µM ClpP1P2 was pre‐incubated with 10 µM GDI‐5755 or DMSO solvent for 60 min at room temperature. To induce the formation of the [EI] complex, 0.5 mM Bz‐HT was also added. The mixture was diluted 100‐, 200‐, or 400‐fold to a 50 µl final volume with the peptidase reaction buffer and 20 μM substrate to start the jump dilution experiment. Fluorescence was recorded every 5 min continuously over a 220‐min course. To determine the k obs of the competitive inhibitor, the compound was dispended into a black 384‐well plate in a twofold concentration gradient from 20 µM to 0.5 µM. Without pre‐incubation, the other components (50 nM ClpP1P2, 200 µM substrate, and 0.5 mM Bz‐HT in the PIPES buffer as above) were added like in the peptidase degradation assay. The progress was monitored by continuously recording the fluorescence readouts. The fluorescence vs reaction time in seconds was fitted into Equation (2) using GraphPad Prism 10. (2) [P]=νst+νi−νs/kobs[1−exp(−kobst)] where P represents the product concentration, v s is the steady‐state reaction rate (0 in this case), v i is the initial rate, t is a time point, and k obs is the first‐order rate constant for onset of inhibition. The k obs values obtained were plotted against the inhibitor concentration and fitted into linear regression to yield k obs/[I] values as the slope, indicating the inhibition potency of the compound.

Structure (SMILES): O=C(Oc1ccc(Cl)cc1)c1ccc(N2CCOCC2)c([N+](=O)[O-])c1 [GDI‐5755]
- stability in protein‐free buffer [1]: susceptible to hydrolysis
- MIC against H37Rv, reported (M. tuberculosis H37Rv): 3.16 µM (≈ 1.15 µg/mL)
- mass difference between new species and ClpP1 [2]: 234.30 Da
- mass of ClpP2 after treatment [2]: unchanged
- inactivation efficiency k obs/[I] (Mtb ClpP1P2): 178 ± 10.7 M⁻¹ s⁻¹
